Earlier results on 1 compound are cited in PMC7926471 (Viruses, 2021).

The subject of this data set is SARS-CoV-2. As to conditions: pre and post treatment of Vero E6 cultures; cited from earlier work.

In the case of `CCN(CC)CCCC(C)Nc1ccnc2cc(Cl)ccc12` (centres unmarked) [Chloroquine, chloroquine diphosphate], the EC50 is 1.13 µM and the EC90 is 6.9 µM.
